Consider 26 molecules from patent US11590116B2 (THERAVANCE BIOPHARMA R&D IP, LLC, priority 2019, dated 2023).

Assay [1] concerns the target T1, recombinant human ALK5 (TGF-βR1) protein (Homo sapiens, UniProt P36897).
T1 construct: purchased Life Technologies PR9075A
T1 sequence (P36897 34-503): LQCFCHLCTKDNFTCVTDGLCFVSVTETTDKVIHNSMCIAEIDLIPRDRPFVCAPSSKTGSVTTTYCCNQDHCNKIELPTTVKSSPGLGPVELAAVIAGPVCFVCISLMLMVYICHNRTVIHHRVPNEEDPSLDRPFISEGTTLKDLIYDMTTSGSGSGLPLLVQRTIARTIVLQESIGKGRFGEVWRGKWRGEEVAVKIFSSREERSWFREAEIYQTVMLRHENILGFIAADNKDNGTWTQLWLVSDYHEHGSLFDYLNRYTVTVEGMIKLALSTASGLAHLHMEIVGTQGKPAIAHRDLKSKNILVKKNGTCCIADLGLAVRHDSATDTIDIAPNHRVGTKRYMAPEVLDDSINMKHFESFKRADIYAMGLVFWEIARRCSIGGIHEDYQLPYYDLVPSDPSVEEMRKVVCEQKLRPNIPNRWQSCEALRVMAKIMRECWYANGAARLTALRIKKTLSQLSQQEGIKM
Description: Biochemical ALK5 (TGF-βR1) assay to measure pKi (LANCE Ultra ULight kinase assay). The following applies: apparent pKi from pIC50 by Cheng-Prusoff, read-out: ALK5 pKi (converted). In outline: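 Dose range 10 μM–25 pM; enzyme + compound 60 min RT; ATP added (5× stock 125 μM, 2 mM DTT); 60 min 37 °C; stop with EDTA + Eu anti-phospho-Topo IIα Thr1342 Ab; TR-FRET ex 320/340, em 665 nm. 4-param pIC50 → pKi (Cheng-Prusoff).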

Assay [2] has as its system TGF-β-stimulated SMAD3 phosphorylation in BEAS-2B cells. Description: Cellular ALK5 potency assay, inhibition of TGF-β stimulated pSMAD3 formation in BEAS-2B cells. Type of assay: cell-based. The following applies: Homo sapiens; inhibition of TGF-β stimulated pSMAD3 formation, BEAS-2B cells; read-out: BEAS2B pIC50 (converted). The method in brief:
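Potency is reported as pIC50, derived from concentration-dependent reduction of pSMAD3 AlphaLISA signal against TGF-β-stimulated cells without compound. BEAS-2B cells received compound for 1 h before a 30-min stimulation with 10 ng/mL TGF-β.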

On to `Cc1cccc(-c2[nH]cnc2-c2ccc3ncc(-c4csc(C(=O)OCCN5CCC[C@@H](N)C5)c4)cc3c2)n1` [Compound 1178, 2-[(3R)-3-amino-1-piperidyl]ethyl 4-[6-[5-(6-methyl-2-pyridyl)-1H-imidazol-4-yl]-3-quinolyl]thiophene-2-carboxylate], for which the Ki in assay [1] is 0.0398 to 0.316 nM. Moreover, the IC50 in assay [2] is 25.1 to 158 nM.

As to `Cc1cccc(-c2n[nH]cc2-c2ccc3nccc(-c4cn[nH]c4)c3n2)n1` [Compound 834, 2-[3-(6-methyl-2-pyridyl)-1H-pyrazol-4-yl]-8-(1H-pyrazol-4-yl)-1,5-naphthyridine], in assay [1], the Ki was 0.0398 to 0.316 nM. Further, in assay [2], the IC50 was less than 20 nM.

As to `Cc1cccc(-c2[nH]cnc2-c2ccc3ncc(-c4ncc(C(=O)OCC5CNC5)cn4)cc3c2)n1` [Compound 1144, azetidin-3-ylmethyl 2-[6-[5-(6-methyl-2-pyridyl)-1H-imidazol-4-yl]-3-quinolyl]pyrimidine-5-carboxylate], the Ki in assay [1] is 0.0398 to 0.316 nM. Also, the IC50 in assay [2] is 25.1 to 158 nM.

For `Cc1nc(-c2n[nH]cc2-c2ccc3ncc(-c4nc5c([nH]4)CCNCC5)cc3n2)ccc1F` [Compound 611, 2-[6-[3-(5-fluoro-6-methyl-2-pyridyl)-1H-pyrazol-4-yl]-1,5-naphthyridin-3-yl]-1,4,5,6,7,8-hexahydroimidazo[4,5-d]azepine], the Ki in assay [1] is less than 0.0316 nM. Besides, the IC50 in assay [2] was 1580 to 10000 nM.

For the molecule `Cc1cccc(-c2[nH]cnc2-c2ccc3ncc(NCCC4CNC4)cc3c2)n1` [Compound 116, N-[2-(azetidin-3-yl)ethyl]-6-[5-(6-methyl-2-pyridyl)-1H-imidazol-4-yl]quinolin-3-amine], the Ki in assay [1] was 0.0398 to 0.316 nM. Further, the IC50 in assay [2] was 25.1 to 158 nM.

`Cc1cccc(-c2nnn(C)c2-c2ccc3ncc(-c4cn[nH]c4)cc3c2)n1` [Compound 399, 6-[3-methyl-5-(6-methyl-2-pyridyl)triazol-4-yl]-3-(1H-pyrazol-4-yl)quinoline]: the Ki in assay [1] was less than 0.0316 nM. Also, the IC50 in assay [2] is less than 20 nM.

As to `Cc1cccc(-c2n[nH]cc2-c2ccc3ncc(N4CCNCC4)cc3c2)n1` [Compound 529, 6-[3-(6-methyl-2-pyridyl)-1H-pyrazol-4-yl]-3-piperazin-1-yl-quinoline], the Ki in assay [1] is less than 0.0316 nM. Further, in assay [2], the IC50 is less than 20 nM.

With `Cc1cccc(-c2n[nH]cc2-c2ccc3nccc(NC(=O)CN4CCOCC4)c3n2)n1` [Compound 840, N-[6-[3-(6-methyl-2-pyridyl)-1H-pyrazol-4-yl]-1,5-naphthyridin-4-yl]-2-morpholino-acetamide], in assay [1], the Ki was 0.0398 to 0.316 nM. Further, in assay [2], the IC50 is 25.1 to 158 nM.

Take `CNCCn1cc(-c2cnc3ccc(-c4c[nH]nc4-c4ccc(F)c(C)n4)cc3c2)cn1` [Compound 634, 2-[4-[6-[3-(5-fluoro-6-methyl-2-pyridyl)-1H-pyrazol-4-yl]-3-quinolyl]pyrazol-1-yl]-N-methyl-ethanamine]: the Ki in assay [1] was less than 0.0316 nM. The IC50 in assay [2] was less than 20 nM.

For the molecule `Cc1cccc(-c2[nH]cnc2-c2ccc3ncc(-c4cccc(C(=O)OC5CCNCC5)n4)cc3c2)n1` [Compound 1062, 4-piperidyl 6-[6-[5-(6-methyl-2-pyridyl)-1H-imidazol-4-yl]-3-quinolyl]pyridine-2-carboxylate], the Ki in assay [1] is 0.0398 to 0.316 nM. Also, the IC50 in assay [2] was 25.1 to 158 nM.

As for `COC(=O)Cn1cc(-c2cnc3ccc(-c4c[nH]nc4-c4cccc(C)n4)nc3c2)cn1` [Compound 673, methyl 2-[4-[6-[3-(6-methyl-2-pyridyl)-1H-pyrazol-4-yl]-1,5-naphthyridin-3-yl]pyrazol-1-yl]acetate], the Ki in assay [1] is 0.0398 to 0.316 nM. Further, in assay [2], the IC50 was 25.1 to 158 nM.

Regarding `Cc1cccc(-c2[nH]cnc2-c2ccc3ncc(C(=O)OCCCN4CCC5(CC4)CNC5)cc3c2)n1` [Compound 904, 3-(2,7-diazaspiro[3.5]nonan-7-yl)propyl 6-(5-(6-methylpyridin-2-yl)-1H-imidazol-4-yl)quinoline-3-carboxylate], the Ki in assay [1] is 0.0398 to 0.316 nM. The IC50 in assay [2] was 200 to 1260 nM.

On to `Cc1cccc(-c2[nH]cnc2-c2ccc3ncc(C(=O)O[C@H]4CCCC[C@@H]4N)cc3c2)n1` [Compound 879, (1S,2S)-2-aminocyclohexyl 6-(5-(6-methylpyridin-2-yl)-1H-imidazol-4-yl)quinoline-3-carboxylate], for which the Ki in assay [1] was 3.98 to 31.6 nM. In addition, the IC50 in assay [2] was 25.1 to 158 nM.

Take `Cc1nc(-c2n[nH]cc2-c2ccc3ncc(-c4nc5c([nH]4)CNCC5)cc3n2)ccc1F` [Compound 425, 2-[3-(5-fluoro-6-methyl-2-pyridyl)-1H-pyrazol-4-yl]-7-(4,5,6,7-tetrahydro-3H-imidazo[4,5-c]pyridin-2-yl)-1,5-naphthyridine]: the Ki in assay [1] was 0.0398 to 0.316 nM. In addition, in assay [2], the IC50 is 200 to 1260 nM.

As for `Cc1cccc(-c2nnn(Cc3ccccc3)c2-c2ccc3ncc(N4CCCNCC4)cc3c2)n1` [Compound 411, 6-[3-benzyl-5-(6-methyl-2-pyridyl)triazol-4-yl]-3-(1,4-diazepan-1-yl)quinoline], in assay [1], the Ki is 0.0398 to 0.316 nM. Further, in assay [2], the IC50 is 25.1 to 158 nM.

For `Cc1cccc(-c2n[nH]c(N)c2-c2ccc3ncc(N4CCNCC4)cc3n2)n1` [Compound 238, 3-(6-methyl-2-pyridyl)-4-(7-piperazin-1-yl-1,5-naphthyridin-2-yl)-1H-pyrazol-5-amine], the Ki in assay [1] was 0.398 to 3.16 nM. Further, the IC50 in assay [2] was 1580 to 10000 nM.

Take `Cc1nc(-c2n[nH]cc2-c2ccc3ncc(-c4nc(C)c(CCN)[nH]4)cc3n2)ccc1F` [Compound 483, 2-[2-[6-[3-(5-fluoro-6-methyl-2-pyridyl)-1H-pyrazol-4-yl]-1,5-naphthyridin-3-yl]-4-methyl-1H-imidazol-5-yl]ethanamine]: the Ki in assay [1] is 0.0398 to 0.316 nM. In assay [2], the IC50 was 200 to 1260 nM.

With `Cc1cccc(-c2[nH]cnc2-c2ccc3ncc(-c4csc(C(=O)OC[C@@H]5CCC[C@H](N)C5)c4)cc3c2)n1` (racemic) [Compound 1197, [rac-(1R,3S)-3-aminocyclohexyl]methyl 4-[6-[5-(6-methyl-2-pyridyl)-1H-imidazol-4-yl]-3-quinolyl]thiophene-2-carboxylate], the Ki in assay [1] is 0.0398 to 0.316 nM. Moreover, the IC50 in assay [2] was 25.1 to 158 nM.

On to `CCOC(=O)C1CC=C(c2cnc3ccc(-c4nc[nH]c4-c4cccc(C)n4)cc3c2)CC1` (stereo not shown) [Compound 167, ethyl 4-[6-[5-(6-methyl-2-pyridyl)-1H-imidazol-4-yl]-3-quinolyl]cyclohex-3-ene-1-carboxylate], for which, in assay [1], the Ki was 0.0398 to 0.316 nM. Moreover, in assay [2], the IC50 was 25.1 to 158 nM.

Turning to `Cc1cccc(-c2n[nH]cc2-c2ccc3ncc(O)cc3n2)n1` [Compound 694, 6-[3-(6-methyl-2-pyridyl)-1H-pyrazol-4-yl]-1,5-naphthyridin-3-ol], in assay [1], the Ki is 0.0398 to 0.316 nM. For the same molecule, the IC50 in assay [2] was less than 20 nM.

Consider `Cc1cccc(-c2[nH]cnc2-c2ccc3ncc(-c4ccc(C(=O)O[C@@H]5CCNC5)cc4)cc3c2)n1` [Compound 716, [(3R)-pyrrolidin-3-yl] 4-[6-[5-(6-methyl-2-pyridyl)-1H-imidazol-4-yl]-3-quinolyl]benzoate], for which the Ki in assay [1] was 0.0398 to 0.316 nM. For the same molecule, in assay [2], the IC50 is 25.1 to 158 nM.

Consider `Cc1nc(-c2n[nH]cc2-c2ccc3ncc(-c4c(C)nn5c4NCCC5)cc3n2)ccc1F` [Compound 504, 2-[3-(5-fluoro-6-methyl-2-pyridyl)-1H-pyrazol-4-yl]-7-(2-methyl-4,5,6,7-tetrahydropyrazolo[1,5-a]pyrimidin-3-yl)-1,5-naphthyridine], for which, in assay [1], the Ki is 0.398 to 3.16 nM. For the same molecule, the IC50 in assay [2] is 25.1 to 158 nM.

In the case of `Cc1cccc(-c2[nH]ncc2-c2ccc3ncc(C(=O)OCCC4CCNC4)cc3c2)n1` (stereo not shown) [Compound 1164, 2-pyrrolidin-3-ylethyl 6-[5-(6-methyl-2-pyridyl)-1H-pyrazol-4-yl]quinoline-3-carboxylate], in assay [1], the Ki was 0.0398 to 0.316 nM. For the same molecule, the IC50 in assay [2] is 25.1 to 158 nM.

`Cc1nc(-c2nc3ccccn3c2-c2ccc3ncc(-c4cnc5n4CCNC5)cc3n2)ccc1F` [Compound 560, 2-[2-(5-fluoro-6-methyl-2-pyridyl)imidazo[1,2-a]pyridin-3-yl]-7-(5,6,7,8-tetrahydroimidazo[1,2-a]pyrazin-3-yl)-1,5-naphthyridine]: the Ki in assay [1] was 0.0398 to 0.316 nM. Besides, the IC50 in assay [2] is 25.1 to 158 nM.

`CNCCn1ccc(-c2cnc3ccc(-c4c[nH]nc4-c4ccc(F)c(C)n4)nc3c2)n1` [Compound 108, 2-[3-[6-[3-(5-fluoro-6-methyl-2-pyridyl)-1H-pyrazol-4-yl]-1,5-naphthyridin-3-yl]pyrazol-1-yl]-N-methyl-ethanamine]: the Ki in assay [1] is 0.0398 to 0.316 nM. For the same molecule, the IC50 in assay [2] was 25.1 to 158 nM.

On to `Cc1cccc(-c2[nH]ncc2-c2ccc3nccc(C(=O)OCCC4CNC4)c3c2)n1` [Compound 1136, 2-(azetidin-3-yl)ethyl 6-[5-(6-methyl-2-pyridyl)-1H-pyrazol-4-yl]quinoline-4-carboxylate], for which the Ki in assay [1] was 0.398 to 3.16 nM. For the same molecule, the IC50 in assay [2] is 200 to 1260 nM.
